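Cells were grown in 96-well plates and exposed to each compound for 48 hours at five concentrations; endpoints were interpolated linearly between bracketing concentrations, or set to the highest concentration if not reached. GI50: concentration for 50% inhibition of growth. The concentration for full growth arrest is given as TGI.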
Experiments:
Experiment in all cases: NCI-60 cell line screen, 48 h
[1] = test system: COLO 205 colon
[2] = test system: MCF7 breast
[3] = test system: K-562 leukemia
[4] = test system: DU-145 prostate
[5] = test system: NCI-H23 lung
[6] = test system: MDA-MB-468 breast
[7] = test system: NCI-H460 lung
[8] = test system: NCI/ADR-RES ovarian
[9] = test system: MOLT-4 leukemia
[10] = test system: TK-10 renal
[11] = test system: MALME-3M melanoma
[12] = test system: MDA-MB-435
[13] = test system: A498 renal
[14] = test system: UO-31 renal
[15] = test system: HCT-15 colon
[16] = test system: OVCAR-4 ovarian
[17] = test system: SK-MEL-5 melanoma
[18] = test system: T-47D breast
[19] = test system: U251 CNS
[20] = test system: IGROV1 ovarian
[21] = test system: HCT-116 colon
[22] = test system: CCRF-CEM leukemia
[23] = test system: SF-539 CNS
[24] = test system: OVCAR-5 ovarian
[25] = test system: SK-OV-3 ovarian
[26] = test system: SK-MEL-2 melanoma
[27] = test system: HCC-2998 colon
[28] = test system: HOP-92 NSCLC
[29] = test system: A549 NSCLC
[30] = test system: SN12C renal
[31] = test system: OVCAR-3 ovarian
[32] = test system: 786-0 renal
[33] = test system: PC-3 prostate
[34] = test system: LOX IMVI melanoma
[35] = test system: EKVX NSCLC
[36] = test system: M14 melanoma
[37] = test system: SR leukemia
[38] = test system: UACC-257 melanoma
[39] = test system: NCI-H522 lung
[40] = test system: SW-620 colon
[41] = test system: ACHN renal
[42] = test system: NCI-H226 lung
[43] = test system: HT29 colon
[44] = test system: SK-MEL-28 melanoma
[45] = test system: CAKI-1 renal
[46] = test system: SF-295 CNS
[47] = test system: SF-268 CNS
[48] = test system: HL-60(TB) leukemia
[49] = test system: SNB-19 CNS
[50] = test system: RPMI-8226 leukemia
[51] = test system: SNB-75 CNS
[52] = test system: KM12 colon
[53] = test system: RXF 393 renal
[54] = test system: OVCAR-8 ovarian
[55] = test system: HOP-62 NSCLC
[56] = test system: MDA-MB-231 breast
[57] = test system: HS 578T breast
[58] = test system: UACC-62 melanoma
[59] = test system: BT-549 breast

Compound: COc1ccc2[nH]cc(-c3cc(N)n4nc(-c5cn(C)c6ccccc56)cc4n3)c2c1
- GI50 [1]: 1.79 µM
- TGI [1]: 3.41 µM
- GI50 [2]: 1.46 µM
- TGI [2]: 3.25 µM
- GI50 [3]: 0.614 µM
- TGI [3]: 6.66 µM
- GI50 [4]: 1.82 µM
- TGI [4]: 3.52 µM
- GI50 [5]: 1.97 µM
- TGI [5]: 3.95 µM
- GI50 [6]: 1.57 µM
- TGI [6]: 3.06 µM
- GI50 [7]: 1.9 µM
- TGI [7]: 3.62 µM
- GI50 [8]: 1.89 µM
- TGI [8]: 3.82 µM
- GI50 [9]: 1.59 µM
- TGI [9]: 4.38 µM
- GI50 [10]: 1.89 µM
- TGI [10]: 3.37 µM
- GI50 [11]: 1.74 µM
- TGI [11]: 3.14 µM
- GI50 [12]: 1.77 µM
- TGI [12]: 3.23 µM
- GI50 [13]: 1.73 µM
- TGI [13]: 3.23 µM
- GI50 [14]: 1.46 µM
- TGI [14]: 2.78 µM
- GI50 [15]: 1.23 µM
- TGI [15]: 2.52 µM
- GI50 [16]: 1.7 µM
- TGI [16]: 3.19 µM
- GI50 [17]: 1.76 µM
- TGI [17]: 3.14 µM
- GI50 [18]: 2.01 µM
- TGI [18]: 4.43 µM
- GI50 [19]: 1.69 µM
- TGI [19]: 3.15 µM
- GI50 [20]: 1.62 µM
- TGI [20]: 3.05 µM
- GI50 [21]: 1.54 µM
- TGI [21]: 3.69 µM
- GI50 [22]: 1.86 µM
- TGI [22]: 6.44 µM
- GI50 [23]: 1.61 µM
- TGI [23]: 3.01 µM
- GI50 [24]: 1.73 µM
- TGI [24]: 3.27 µM
- GI50 [25]: 1.81 µM
- TGI [25]: 3.36 µM
- GI50 [26]: 1.67 µM
- TGI [26]: 3.13 µM
- GI50 [27]: 1.94 µM
- TGI [27]: 3.38 µM
- GI50 [28]: 1.68 µM
- TGI [28]: 3.24 µM
- GI50 [29]: 1.54 µM
- TGI [29]: 2.9 µM
- GI50 [30]: 1.53 µM
- TGI [30]: 2.86 µM
- GI50 [31]: 1.8 µM
- TGI [31]: 3.34 µM
- GI50 [32]: 1.59 µM
- TGI [32]: 3.12 µM
- GI50 [33]: 1.67 µM
- TGI [33]: 3.52 µM
- GI50 [34]: 1.76 µM
- TGI [34]: 3.28 µM
- GI50 [35]: 1.8 µM
- TGI [35]: 3.89 µM
- GI50 [36]: 1.79 µM
- TGI [36]: 3.93 µM
- GI50 [37]: 0.343 µM
- TGI [37]: 1.73 µM
- GI50 [38]: 1.68 µM
- TGI [38]: 3.1 µM
- GI50 [39]: 1.52 µM
- TGI [39]: 2.99 µM
- GI50 [40]: 1.81 µM
- TGI [40]: 3.47 µM
- GI50 [41]: 1.87 µM
- TGI [41]: 3.43 µM
- GI50 [42]: 1.87 µM
- TGI [42]: 4.74 µM
- GI50 [43]: 1.8 µM
- TGI [43]: 3.22 µM
- GI50 [44]: 1.78 µM
- TGI [44]: 3.23 µM
- GI50 [45]: 1.73 µM
- TGI [45]: 3.12 µM
- GI50 [46]: 1.78 µM
- TGI [46]: 3.34 µM
- GI50 [47]: 1.94 µM
- TGI [47]: 4.05 µM
- GI50 [48]: 1.39 µM
- TGI [48]: 3.58 µM
- GI50 [49]: 1.66 µM
- TGI [49]: 3.11 µM
- GI50 [50]: 1.94 µM
- TGI [50]: 5 µM
- GI50 [51]: 1.4 µM
- TGI [51]: 2.81 µM
- GI50 [52]: 2.03 µM
- TGI [52]: 4.22 µM
- GI50 [53]: 1.74 µM
- TGI [53]: 3.39 µM
- GI50 [54]: 1.75 µM
- TGI [54]: 3.27 µM
- GI50 [55]: 1.89 µM
- TGI [55]: 3.76 µM
- GI50 [56]: 1.51 µM
- TGI [56]: 2.84 µM
- GI50 [57]: 2.05 µM
- TGI [57]: 4.83 µM
- GI50 [58]: 1.62 µM
- TGI [58]: 2.99 µM

Compound: C#CCNC(=O)CCC(=O)OC[C@]12CC[C@@H](C(=C)C)[C@@H]1C1CC[C@@H]3[C@@]4(C)CCCNC(C)(C)[C@@H]4CC[C@@]3(C)[C@]1(C)CC2 (some centres undefined)
- GI50 [1]: 2.25 µM
- TGI [1]: 7.29 µM
- GI50 [2]: 2.36 µM
- TGI [2]: 9.66 µM
- GI50 [3]: 1.78 µM
- TGI [3]: 16.3 µM
- GI50 [4]: 10 µM
- TGI [4]: 21.5 µM
- GI50 [5]: 7.89 µM
- TGI [5]: 16.1 µM
- GI50 [6]: 2.21 µM
- TGI [6]: 10.5 µM
- GI50 [7]: 7.89 µM
- TGI [7]: 18.6 µM
- GI50 [8]: 5.48 µM
- TGI [8]: 16.6 µM
- GI50 [9]: 2.42 µM
- TGI [9]: 18.7 µM
- GI50 [10]: 10.1 µM
- TGI [10]: 22 µM
- GI50 [11]: 9.03 µM
- TGI [11]: 18.5 µM
- GI50 [12]: 6.9 µM
- TGI [12]: 15.2 µM
- GI50 [13]: 10.3 µM
- TGI [13]: 20.9 µM
- GI50 [14]: 6.96 µM
- TGI [14]: 14.9 µM
- GI50 [15]: 3.89 µM
- TGI [15]: 12.4 µM
- GI50 [16]: 9.11 µM
- TGI [16]: 20.8 µM
- GI50 [17]: 6.78 µM
- TGI [17]: 14.4 µM
- GI50 [18]: 8.06 µM
- TGI [18]: 21.1 µM
- GI50 [19]: 6.62 µM
- TGI [19]: 16.8 µM
- GI50 [20]: 7.29 µM
- TGI [20]: 16.3 µM
- GI50 [21]: 3.31 µM
- TGI [21]: 27.4 µM
- GI50 [22]: 4.24 µM
- TGI [22]: 37.1 µM
- GI50 [23]: 7.48 µM
- TGI [23]: 15.7 µM
- GI50 [24]: 9.38 µM
- TGI [24]: 17.9 µM
- GI50 [25]: 9.94 µM
- TGI [25]: 20 µM
- GI50 [26]: 11.7 µM
- TGI [26]: 23.3 µM
- GI50 [27]: 2.55 µM
- TGI [27]: 10.3 µM
- GI50 [59]: 11.3 µM
- TGI [59]: 21.1 µM
- GI50 [28]: 7.54 µM
- TGI [28]: 19 µM
- GI50 [29]: 7.12 µM
- TGI [29]: 16.7 µM
- GI50 [30]: 7.89 µM
- TGI [30]: 16.7 µM
- GI50 [31]: 7.73 µM
- TGI [31]: 18.2 µM
- GI50 [32]: 8.29 µM
- TGI [32]: 23.6 µM
- GI50 [33]: 4.8 µM
- TGI [33]: 16.3 µM
- GI50 [34]: 1.23 µM
- TGI [34]: 2.83 µM
- GI50 [35]: 6.5 µM
- TGI [35]: 14.2 µM
- GI50 [36]: 6.83 µM
- TGI [36]: 19 µM
- GI50 [37]: > 64.8 µM
- TGI [37]: > 64.8 µM
- GI50 [38]: 2.51 µM
- TGI [38]: 9.16 µM
- GI50 [39]: 11.7 µM
- TGI [39]: 25.4 µM
- GI50 [40]: 7.25 µM
- TGI [40]: 16.7 µM
- GI50 [41]: 10.1 µM
- TGI [41]: 18.9 µM
- GI50 [42]: 7.58 µM
- TGI [42]: 18.3 µM
- GI50 [43]: 2.71 µM
- TGI [43]: 13.9 µM
- GI50 [44]: 8.2 µM
- TGI [44]: 16.5 µM
- GI50 [45]: 8.1 µM
- TGI [45]: 17.2 µM
- GI50 [46]: 3.54 µM
- TGI [46]: 12.2 µM
- GI50 [47]: 10.5 µM
- TGI [47]: 23.8 µM
- GI50 [48]: 2.37 µM
- TGI [48]: 14 µM
- GI50 [49]: 8.91 µM
- TGI [49]: 17.6 µM
- GI50 [50]: 4.15 µM
- TGI [50]: 20.7 µM
- GI50 [51]: 9.12 µM
- TGI [51]: 18.7 µM
- GI50 [52]: 8.73 µM
- TGI [52]: 18.8 µM
- GI50 [53]: 3.51 µM
- TGI [53]: 13.6 µM
- GI50 [54]: 11.1 µM
- TGI [54]: 33.8 µM
- GI50 [55]: 11.7 µM
- TGI [55]: 23.7 µM
- GI50 [56]: 8.83 µM
- TGI [56]: 17.7 µM
- GI50 [57]: 9.96 µM
- TGI [57]: 24.2 µM
- GI50 [58]: 9.04 µM
- TGI [58]: 18.1 µM

— PubChem BioAssay (NCI)
